Laboratory results from ChEMBL document CHEMBL4627328, “Synthesis and in vitro evaluation of antimycobacterial and cytotoxic activity of new α,β-unsaturated amide, oxazoline and oxazole derivatives from l-serine” (Bioorg Med Chem Lett, 2020).
≈ marks a conversion by molar mass, not a printed value.

tested on: Mycobacterium tuberculosis; test: Antimycobacterial activity against multidrug resistant Mycobacterium tuberculosis G122 incubated for 5 days by alamar blue based colorimetric assay; format: functional; details: G122, 120 h

Row | Structure (SMILES) | MIC
1 | COC(=O)[C@H](CO)NC(=O)/C=C/c1ccc(OC)cc1 | > 358 µM
2 | COC(=O)c1coc(/C=C/c2ccccc2)n1 | 54.5 µM (≈ 12.5 µg/mL)
3 | COC(=O)[C@H](CO)NC(=O)/C=C/c1ccccc1 | > 401 µM
4 | O=C(/C=C/c1ccccc1)O/C(=N/C1CCCCC1)NC1CCCCC1 | > 282 µM
5 | COC(=O)[C@H](COC(=O)/C=C/c1ccccc1)NC(=O)/C=C/c1ccccc1 | > 264 µM
6 | COC(=O)[C@H](COC(=O)/C=C/c1ccc(OC)cc1)NC(=O)/C=C/c1ccc(OC)cc1 | > 228 µM
7 | COC(=O)c1coc(/C=C/c2ccc(F)cc2)n1 | 50.5 µM (≈ 12.5 µg/mL)
8 | COC(=O)c1coc(/C=C/c2ccc(C)cc2)n1 | 25.7 µM (≈ 6.25 µg/mL)
9 | CC[C@@H](CO)NCCN[C@@H](CC)CO [ETHAMBUTOL] | > 30.5 µM
10 | COC(=O)[C@@H]1COC(/C=C/c2ccccc2)=N1 | 54.1 µM (≈ 12.5 µg/mL)
11 | COC(=O)[C@H](CO)NC(=O)/C=C/c1ccc(C)cc1 | > 380 µM
12 | COC(=O)[C@H](CO)NC(=O)/C=C/c1ccc(F)cc1 | > 374 µM
13 | COC(=O)[C@@H]1COC(/C=C/c2ccc(OC)cc2)=N1 | 47.8 µM (≈ 12.5 µg/mL)
14 | COC(=O)[C@H](COC(=O)/C=C/c1ccc(C)cc1)NC(=O)/C=C/c1ccc(C)cc1 | > 245 µM
15 | O=C(/C=C/c1ccc(F)cc1)O/C(=N/C1CCCCC1)NC1CCCCC1 | > 268 µM
16 | COC(=O)c1coc(/C=C/c2ccc(OC)cc2)n1 | 48.2 µM (≈ 12.5 µg/mL)
17 | CO[C@H]1/C=C/O[C@@]2(C)Oc3c(C)c(O)c4c(O)c(c(/C=N/N5CCN(C)CC5)c(O)c4c3C2=O)NC(=O)/C(C)=C\C=C\[C@H](C)[C@H](O)[C@@H](C)[C@@H](O)[C@@H](C)[C@H](OC(C)=O)[C@@H]1C [RIFAMPIN] | 0.23 µM (≈ 0.189 µg/mL)
18 | COC(=O)[C@H](COC(=O)/C=C/c1ccc(F)cc1)NC(=O)/C=C/c1ccc(F)cc1 | > 241 µM
19 | Cc1ccc(/C=C/C(=O)O/C(=N/C2CCCCC2)NC2CCCCC2)cc1 | > 271 µM
20 | COC(=O)[C@@H]1COC(/C=C/c2ccc(C)cc2)=N1 | 50.9 µM (≈ 12.5 µg/mL)
21 | COC(=O)[C@@H]1COC(/C=C/c2ccc(F)cc2)=N1 | 100 µM (≈ 25 µg/mL)
22 | C[C@H]1COc2c(N3CCN(C)CC3)c(F)cc3c(=O)c(C(=O)O)cn1c23 [LEVOFLOXACIN] | 0.54 µM (≈ 0.195 µg/mL)
